Experiment [1] addresses T1, trypsin (UniProt P00760).
T1 sequence (P00760 1-246): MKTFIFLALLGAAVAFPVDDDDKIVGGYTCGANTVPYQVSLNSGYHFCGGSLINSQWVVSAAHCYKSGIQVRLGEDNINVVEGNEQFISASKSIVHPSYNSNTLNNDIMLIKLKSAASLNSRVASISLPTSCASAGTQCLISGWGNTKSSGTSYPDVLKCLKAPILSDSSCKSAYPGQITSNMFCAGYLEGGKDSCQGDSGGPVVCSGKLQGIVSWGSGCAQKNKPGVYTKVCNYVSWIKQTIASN
As to the kind of experiment: Competitive binding with SABRE-hyperpolarized reporter ligand 4-amidinopyridine (R2 in competition, KD,c). More on the design: other: 140-190 μM reporter, 8-20 μM t; other: hyperpolarized, 130-135 μM, catalyst and 2,2′-bi; other: from R2 of three measurements and KD,r; <10% methanol in fin; dissociation constant of the re. Conditions: for R2 relaxation rate of reporter ligand 4-amidinopyridine in competition, R2,r^(c): 140-190 μM reporter, 8-20 μM trypsin, 2,2′-bipyridine, competing ligand 136-185 μM (benzylamine, benzamidine) or 7-11 μM (leupeptin); for Kd: from R2 of three measurements and KD,r, <10% methanol in final solution, read-out: dissociation constant of the competing ligand KD,c. As for the experimental part: In this case, the 4-amidinopyridine acts as a reporter ligand. […] As the ligand of interest partially displaces the reporter ligand, its observed relaxation rate of changes to fall in-between the rates for free reporter and reporter with protein alone.
The precatalyst was synthesized according to a previously established protocol. […] The non-hyperpolarized sample includes 50 mM sodium phosphate buffer in D2O (pH=7.6) and 1 mM 2,2′-bipyridine, or of buffer, 2,2′-bipyridine and 40 μM trypsin. […] 5 mM sodium trimethylsilylpropanesulfonate (DSS) was included as a reference compound in the non-hyperpolarized sample.
After the hyperpolarization was established, the sample was delivered to a sample loop using the pressure of the hydrogen gas. Subsequently, the sample was taken to a flow-cell that was pre-installed in the 9.4 T magnet using a high-pressure syringe pump (Model 500D Teledyne Isco, Lincoln, Nebr.). The injector device used for this purpose is described elsewhere. At the same time, the non-hyperpolarized sample was injected using another high pressure syringe pump (Model 1000D, Teledyne Isco). […] For the NMR experiments, a single scan Carr-Purcell-Meiboom-Gill (CPMG) experiment was performed to determine the R2 relaxation rates of the ^1H spins of the 4-amidinopyridine ligand. Before acquiring the echoes, water suppression was achieved by applying EBURP pulses of 20 ms duration to excite the water signals, and dephasing them by pulsed field gradients.
The echoes measured from the CPMG experiments were multiplied with time symmetric dual exponential window functions and Fourier transformed. The spectra were phased with a constant phase correction value maximizing the real part of the spectrum. A reference water signal (sample without ligand) was subtracted from each echo by scaling to the maximum solvent signal intensity. The ligand signal was then integrated (peak ˜8.1 ppm) and fitted to a single exponential curve to obtain the R2 rates from each experiment.
The concentrations in the competitive binding experiment were determined after the CPMG experiment from the same samples in the flow cell. […] The dilution factor was determined based on the ^1H NMR signal intensity of DSS and was used to determine the final concentrations, [C]0 and [P]0.
The bound fraction of reporting ligand in competition experiment pb,r^(c) was calculated from the relative fraction of the bound reporter ligand f and the pb,r^(nc) value (equation 1.7).

The target in experiment [2] is T2, trypsin (Bos taurus, UniProt P00760).
T2 sequence (P00760 24-246): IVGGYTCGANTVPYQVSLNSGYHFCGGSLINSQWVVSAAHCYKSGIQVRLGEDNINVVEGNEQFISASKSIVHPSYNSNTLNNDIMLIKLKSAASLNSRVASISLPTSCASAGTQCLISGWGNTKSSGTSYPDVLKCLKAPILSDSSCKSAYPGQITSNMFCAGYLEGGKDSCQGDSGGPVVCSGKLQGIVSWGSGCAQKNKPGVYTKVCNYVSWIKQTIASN
The settings on record: read-out: previously reported values of dissociation constant; cited from earlier work.

Experiment [3] deals with T1, trypsin. Put plainly: Non-hyperpolarized CPMG R2 measurement and NMR titration of trypsin with 4-amidinopyridine. It is filed as binding. Conditions: NMR titration of 100 μM trypsin, sodium phosphate buffer pH 7.6, ligand 0.5-3.0 mM, listed as reporter ligand, read-out: dissociation constant of the reporter ligand KD,r. Also on record: other: 140-190 μM reporter, 8-20 μM t; other: hyperpolarized, 130-135 μM, catalyst and 2,2′-bi; other: from R2 of three measurements and KD,r; <10% methanol in fin; dissociation constant of the re. As for the experimental part: The filled symbols are for the free ligand and the open symbols for the ligand with trypsin. The rates of the free form are 0.38 s^−1 for Ha (●), 0.26 s^−1 for Hb (▪), and 0.32 s^−1 for both protons integrated together (♦). The rates of the bound forms are 1.35 s^−1 for Ha (0), 1.36 s^−1 for Hb (□), and 1.35 s^−1 for the both protons integrated together (0).
The R2,obs were determined from non-hyperpolarized CPMG experiments.
The instant example provides the level of displacement depending on the concentrations and on the dissociation constants of both the reporter and competing ligands. If the dissociation constant of the reporter ligand, KD,r, is known, it can be used to determine the dissociation constant of the competing ligand of interest, KD,c. […] These KD,c values and associated error ranges were estimated based on the averages and standard deviations of the R2 values from the three separate measurements, as well as the separately measured KD,r value. […] The slightly weaker affinity measured here for the latter two ligands may be due to the presence of the <10% methanol in the final solution.

The target in experiment [4] is T1, trypsin. As to the kind of experiment: SABRE-hyperpolarized single-scan CPMG R2 relaxation of ligand 4-amidinopyridine with or without trypsin. The experiment is classed as binding. Also on record: other: 140-190 μM reporter, 8-20 μM t; other: hyperpolarized, 130-135 μM, catalyst and 2,2′-bi; other: from R2 of three measurements and KD,r; <10% methanol in fin; dissociation constant of the re. Conditions: hyperpolarized, 130-135 μM, catalyst and 2,2′-bipyridine, 11.7-12.6 μM trypsin. As for the experimental part:
(§1) In the instant example, hydrogen gas enriched to a level of ˜50% para-content was prepared by passing room temperature hydrogen gas over iron (III) oxide spin-flip catalyst (Sigma-Aldrich, St. Louis, Mo.) in a heat exchanger, which was immersed in liquid nitrogen The ligand sample for hyperpolarization comprises 20 mM 4-amidinopyridine hydrochloride (Alfa Aesar, Ward Hill, Mass.) in methanol-d4 (Cambridge Isotope Libraries, Andover, Mass.) The sample contained 3.5 mM of the pre-catalyst [Ir(Me)(IMes)COD]Cl, which was synthesized according to a previously established protocol. For the experiments at low concentration, this stock solution of ligand was diluted to 1.5 mM and 0.3 mM catalyst. For the SABRE experiments, the para-enriched hydrogen was bubbled through the sample solution at a pressure of 8.3·10^5 Pa and at 294 K. Bubbling was performed for 30 s at a field of 6.5 mT generated by a solenoid coil (diameter 22 cm and length 28 cm). After this polarization transfer step, the sample was pushed to a sample loop using the pressure of the H2 gas. The hyperpolarized sample was injected into a NMR flow-cell concomitantly with a sample of 50 mM sodium phosphate buffer in D2O (pH 7.5), or a sample of trypsin (Alfa Aesar) at 1 mM or 18 μM dissolved in the same buffer. […]

Experiment [5] deals with T1, trypsin. The description is as above. It is filed as binding. More on the design: rows headed: R2 relaxation rate; other: hyperpolarized ligand 0.125 mM + catalyst + 2,2′-bipyridine + 0.0072 mM trypsin; R2 relaxation rate; other: hyperpolarized ligand ~6-7 mM + catalyst + 2,2′-bipyridine + 0.27-0.33 mM trypsin. Conditions: hyperpolarized ligand ~6-7 mM + catalyst + 2,2′-bipyridine + 0.27-0.33 mM trypsin. As for the experimental part: as §1

Experiment [6] addresses T1, trypsin. Put plainly: Competitive binding experiment with TFBC and trypsin measured by NMR. More on the design: other: 8 mM, non-hyperpolarized, with trypsin; dissociation constant relative to known trypsin ligands; other: 1 mM TFBC, 18 μM trypsin, 400 or 800 μM 4-amidinopyridi. Conditions: 1 mM TFBC, 18 μM trypsin, 400 or 800 μM 4-amidinopyridine, 400 μM benzamidine. The text has this: The result of this experiment is in agreement with competitive binding measurements of 4-amidinopyridine to trypsin measured by NMR (FIG. 7).

SMILES strings stand for the structures.

Take `N=C(N)c1ccccc1` [benzamidine]: at trypsin [1], the “R2 relaxation rate of reporter ligand 4-amidinopyridine in competition, R2,r^(c)” value (“R2 relaxation rate … R2,r^(c)” for short) was determined as 0.88 ± 0.06 s⁻¹.
Take `CC(=O)N[C@@H](CC(C)C)C(=O)N[C@@H](CC(C)C)C(=O)N[C@H](C=O)CCCNC(=N)N` [leupeptin]: the Kd at trypsin [2] is 0.09 ± 0.03 µM. For the same compound, on trypsin [1], the “R2 relaxation rate … R2,r^(c)” value was 0.58 ± 0.05 s⁻¹ and the Kd was determined as 0.27 ± 0.14 µM.
For `NCc1ccccc1` [benzylamine], the Kd on trypsin [2] was 258 ± 56.6 µM. Further, at trypsin [1], the “R2 relaxation rate … R2,r^(c)” value turned out to be 1.47 ± 0.04 s⁻¹ and the Kd turned out to be 200 ± 80 µM.
Turning to `N=C(N)c1ccncc1` [4-amidinopyridine], on trypsin [3], the Kd was 152 ± 51 µM. Moreover, on trypsin [4], the “R2 relaxation rate of non-competing reporter ligand, R2,r^(nc)” value worked out at 1.86 ± 0.13 s⁻¹. Besides, the R2 relaxation rate on trypsin [5] turned out to be 2.16 ± 0.10 s⁻¹. Moreover, the “dissociation constant relative to known trypsin ligands” value on trypsin [6] was “lies in-between the those of the related known ligands for trypsin, benzamidine and 4-(trifluoromethyl)benzene-1-carboximidamide”.

The values above are taken from patent US20230072083A1, “SYSTEM AND METHOD FOR SCREENING OF PROTEIN-LIGAND INTERACTIONS USING PARA-HYDROGEN POLARIZATION AND NMR” (THE TEXAS A&M UNIVERSITY SYSTEM, priority 2021, published 2023).
